pIC50: −log10 of the molar value.
Target: Poly [ADP-ribose] polymerase 1 (Homo sapiens, UniProt P09874)
Assay: Inhibition of PARP-1 (unknown origin) using biotinylated NAD+ as substrate after 60 mins by spectrophotometry

Sequence of Poly [ADP-ribose] polymerase 1 (P09874 whole entry): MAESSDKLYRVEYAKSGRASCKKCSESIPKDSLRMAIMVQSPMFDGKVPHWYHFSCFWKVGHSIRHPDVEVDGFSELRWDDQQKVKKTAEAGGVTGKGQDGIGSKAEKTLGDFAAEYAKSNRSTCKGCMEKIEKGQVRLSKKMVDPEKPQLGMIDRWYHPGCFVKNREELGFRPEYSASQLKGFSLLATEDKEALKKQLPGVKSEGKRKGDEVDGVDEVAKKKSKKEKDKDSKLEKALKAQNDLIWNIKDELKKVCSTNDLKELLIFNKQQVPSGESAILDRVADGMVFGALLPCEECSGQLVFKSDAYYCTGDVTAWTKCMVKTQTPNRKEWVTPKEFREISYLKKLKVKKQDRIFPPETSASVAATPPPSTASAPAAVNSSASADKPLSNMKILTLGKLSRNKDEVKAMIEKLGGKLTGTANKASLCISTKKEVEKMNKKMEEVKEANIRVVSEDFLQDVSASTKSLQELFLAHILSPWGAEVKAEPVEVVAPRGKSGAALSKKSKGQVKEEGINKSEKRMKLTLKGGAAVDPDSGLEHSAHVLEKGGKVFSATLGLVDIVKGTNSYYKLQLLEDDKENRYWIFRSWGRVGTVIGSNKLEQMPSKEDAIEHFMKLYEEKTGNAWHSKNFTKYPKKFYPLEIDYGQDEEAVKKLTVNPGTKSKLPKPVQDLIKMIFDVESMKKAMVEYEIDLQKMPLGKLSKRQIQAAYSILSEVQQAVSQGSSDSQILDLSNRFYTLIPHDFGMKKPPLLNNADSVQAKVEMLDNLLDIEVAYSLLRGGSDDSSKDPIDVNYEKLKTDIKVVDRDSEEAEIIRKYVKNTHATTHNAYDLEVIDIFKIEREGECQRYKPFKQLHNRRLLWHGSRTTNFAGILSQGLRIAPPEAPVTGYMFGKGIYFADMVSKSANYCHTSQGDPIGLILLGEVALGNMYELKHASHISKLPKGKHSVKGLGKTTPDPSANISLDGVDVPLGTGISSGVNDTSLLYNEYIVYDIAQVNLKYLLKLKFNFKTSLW

SMILES: CC1Cc2c(N)ccc(C(N)=O)c2O1 (stereo unspecified)
- pIC50: 5.33

Reference: BindingDB's records for doi:10.1021/jm5002502 (St. John'S University, 2014)
